Assay results as given in US9732311B2, “Alcoholic compositions having a lowered risk of acetaldehydemia” (Deuteria Beverages, LLC, priority 2009, dated 2017).
Where two headings read alike, the source gives them in different places. One block for each compound: values may come before it.

Columns and labels:
[1] = oral
Experimental: The subject was a person, 154 kg, with no known abnormalities of ethanol metabolism. Experiments were conducted after an overnight fast. 1,1-Dideuterioethanol, 99 atom % D (CDN Isotopes; Quebec, Canada) (70 mL) was diluted to 500 mL with orange juice, and the resulting beverage was consumed by the subject over the course of five minutes. The mouth and palate were rinsed with orange juice, and data points were then obtained, in triplicate, every 10 minutes with a commercial breath analyzer (AlcoHAWK™ Pro, Q3 Innovations Inc., Independence, Iowa, U.S.A.) The control experiment employed 175 mL of commercial vodka (80 proof; 40% ethanol) but was otherwise identical.
Each data point in the FIGURE is the average of the three measurements taken at each time point.

sheep liver ALDH = details: literature (Hart and Dickinson 1978); cited from earlier work
horse liver ALDH = details: literature (Feldman and Weiner 1972); cited from earlier work

SMILES: [2H]C([2H])(C)O [deuterated ethanol, 1,1-Dideuterioethanol]
- absorption relative to ethanol having a natural isotopic abundance ([1]; human subject, FIG. 1): substantially retarded
- areas under the curves of blood level vs time, deuterated vs ordinary ethanol ([1]; human subject, FIG. 1): substantially equivalent
- rate of clearance relative to ethanol having a natural isotopic abundance ([1]; human subject, FIG. 1): reduced
- time after ingestion at which peak blood concentrations of ethanol are reached ([1]; human subject, after overnight fast, 70 mL diluted to 500 mL with orange juice): 1 to 2 h
- reduction of peak blood concentration ([1]; human subject, relative to non-deuterated ethanol): 15-20%

SMILES: [2H]C(C)=O [acetaldehyde-1-d]
- deuterium isotope effect (sheep liver ALDH): no isotope effect

SMILES: [2H]C(=O)CC [propionaldehyde-1-d]
- deuterium isotope effect (horse liver ALDH): no isotope effect

- time after ingestion at which peak blood concentrations of ethanol are reached ([1]; human, ordinary ethanol (normally)): 0.333 to 0.5 h
SMILES: CCO [ethanol, reference compound]
